Activity calls are given as the source filed them. The rule behind the calls is not given here.
Legend:
[1] = target: Tyrosine-protein kinase Lck (Homo sapiens) (UniProt P06239); test: Inhibitor of LCK_CE in the Eurofins Cerep SafetyScreen44 (BI) by lanthanide chelation excitation (Cerep_2906); details: Compound concentration 10.0 uM
Homo sapiens = species on record: Homo sapiens; test: Agonist activity in the Eurofins Cerep SafetyScreen44 (BI) against N_NEURO_A4B2 by Radioligand Binding (Cerep_3029); assay type: protein-complex assay; details: Compound concentration 10.0 uM
[2] = target: Adenosine receptor A2a (Homo sapiens) (UniProt P29274); test: A2A Eurofins-Cerep binding assay; set-up: ligand concentration 6 nM; details: Compound concentration 10.0 uM
[3] = target: Vasopressin V1a receptor (Homo sapiens) (UniProt P37288); test: V1a Eurofins-Cerep binding assay; set-up: ligand concentration 0.3 nM; details: Compound concentration 10.0 uM
Sequence of Vasopressin V1a receptor (Homo sapiens) (P37288 whole entry, looked up): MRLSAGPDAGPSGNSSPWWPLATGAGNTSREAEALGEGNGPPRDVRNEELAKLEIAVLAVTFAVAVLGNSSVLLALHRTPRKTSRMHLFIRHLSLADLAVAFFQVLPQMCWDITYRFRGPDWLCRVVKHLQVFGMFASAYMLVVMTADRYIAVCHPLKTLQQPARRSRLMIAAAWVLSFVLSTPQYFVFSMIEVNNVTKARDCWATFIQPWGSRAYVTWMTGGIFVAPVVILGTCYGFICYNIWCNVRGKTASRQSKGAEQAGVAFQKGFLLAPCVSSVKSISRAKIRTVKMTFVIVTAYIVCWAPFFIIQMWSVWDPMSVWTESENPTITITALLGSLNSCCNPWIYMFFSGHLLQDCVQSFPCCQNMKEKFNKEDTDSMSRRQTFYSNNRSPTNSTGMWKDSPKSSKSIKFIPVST

[4] = target: Alpha-2A adrenergic receptor (Homo sapiens) (UniProt P08913); test: Inhibitor of ALPHA2A/HU in the Eurofins Cerep SafetyScreen44 (BI) by Radioactive Assay (Cerep_13); details: Compound concentration 10.0 uM
[5] = target: D(2) dopamine receptor (Homo sapiens) (UniProt P14416); test: Agonist activity in the Eurofins Cerep SafetyScreen44 (BI) against D2SH_AGON by Scintillation counting (Cerep_1322); details: Compound concentration 10.0 uM
[6] = target: Glucocorticoid receptor (Homo sapiens) (UniProt P04150); test: GR Eurofins-Cerep binding assay; details: Compound concentration 10.0 uM
[7] = target: Muscarinic acetylcholine receptor M2 (Homo sapiens) (UniProt P08172); test: M2 Eurofins-Cerep binding assay; set-up: ligand concentration 2 nM; details: Compound concentration 10.0 uM
[8] = target: 5-hydroxytryptamine receptor 2B (Homo sapiens) (UniProt P41595); test: 5-HT2B Eurofins-Cerep binding assay; details: Compound concentration 10.0 uM
[9] = target: Sodium-dependent noradrenaline transporter (Homo sapiens) (UniProt P23975); test: norepinephrine transporter Eurofins-Cerep binding assay; set-up: ligand concentration 1 nM; details: Compound concentration 10.0 uM
[10] = target: 3',5'-cyclic-AMP phosphodiesterase 4D (Homo sapiens) (UniProt Q08499); test: Inhibitor of PDE4D2 in the Eurofins Cerep SafetyScreen44 (BI) by Scintillation counting (Cerep_4077); details: Compound concentration 10.0 uM
[11] = target: Cannabinoid receptor 2 (Homo sapiens) (UniProt P34972); test: Activity against CB2/PERIPH/H in the Eurofins Cerep SafetyScreen44 (BI) by Radioactive Assay (Cerep_37); details: Compound concentration 10.0 uM
[12] = target: Endothelin-1 receptor (Homo sapiens) (UniProt P25101); test: ETA Eurofins-Cerep binding assay; set-up: ligand concentration 0.03 nM; details: Compound concentration 10.0 uM
Sequence of Endothelin-1 receptor (Homo sapiens) (P25101 whole entry): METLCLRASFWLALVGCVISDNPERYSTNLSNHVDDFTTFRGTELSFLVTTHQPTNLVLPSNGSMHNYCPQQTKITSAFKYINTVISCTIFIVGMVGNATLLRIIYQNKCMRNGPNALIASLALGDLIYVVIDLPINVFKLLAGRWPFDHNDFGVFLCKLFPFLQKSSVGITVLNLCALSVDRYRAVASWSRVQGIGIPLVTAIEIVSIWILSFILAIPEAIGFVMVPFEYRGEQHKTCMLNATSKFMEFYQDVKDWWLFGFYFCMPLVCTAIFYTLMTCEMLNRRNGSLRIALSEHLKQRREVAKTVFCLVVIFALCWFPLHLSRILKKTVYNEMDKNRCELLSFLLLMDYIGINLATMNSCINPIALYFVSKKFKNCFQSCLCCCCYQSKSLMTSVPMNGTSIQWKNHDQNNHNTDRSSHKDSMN

[13] = target: Cholecystokinin receptor type A (Homo sapiens) (UniProt P32238); test: CCK1 (CCKA) Eurofins-Cerep binding assay; set-up: ligand concentration 0.08 nM; details: Compound concentration 10.0 uM
[14] = target: Mu-type opioid receptor (Homo sapiens) (UniProt P35372); test: mu (MOP) Eurofins-Cerep binding assay; set-up: ligand concentration 0.5 nM; details: Compound concentration 10.0 uM
[15] = target: Muscarinic acetylcholine receptor M3 (Homo sapiens) (UniProt P20309); test: M3 Eurofins-Cerep binding assay; set-up: ligand concentration 0.2 nM; details: Compound concentration 10.0 uM
Sequence of Muscarinic acetylcholine receptor M3 (Homo sapiens) (P20309 whole entry, looked up): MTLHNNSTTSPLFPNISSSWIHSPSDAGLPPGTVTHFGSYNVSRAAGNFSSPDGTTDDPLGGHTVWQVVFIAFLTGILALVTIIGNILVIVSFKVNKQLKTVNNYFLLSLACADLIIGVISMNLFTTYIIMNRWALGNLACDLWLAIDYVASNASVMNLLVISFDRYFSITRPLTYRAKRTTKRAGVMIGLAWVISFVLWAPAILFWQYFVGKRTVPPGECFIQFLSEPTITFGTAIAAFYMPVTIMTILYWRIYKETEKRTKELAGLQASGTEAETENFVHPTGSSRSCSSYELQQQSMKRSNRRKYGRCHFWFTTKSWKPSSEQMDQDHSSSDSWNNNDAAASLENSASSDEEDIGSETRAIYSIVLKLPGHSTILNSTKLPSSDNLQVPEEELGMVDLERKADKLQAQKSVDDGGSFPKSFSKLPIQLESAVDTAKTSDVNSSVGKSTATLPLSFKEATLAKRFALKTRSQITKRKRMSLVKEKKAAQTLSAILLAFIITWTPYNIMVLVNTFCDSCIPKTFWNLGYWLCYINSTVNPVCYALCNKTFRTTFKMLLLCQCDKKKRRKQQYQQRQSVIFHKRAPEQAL

[16] = target: D(1A) dopamine receptor (Homo sapiens) (UniProt P21728); test: D1 Eurofins-Cerep binding assay; set-up: ligand concentration 0.3 nM; details: Compound concentration 10.0 uM
Sequence of D(1A) dopamine receptor (Homo sapiens) (P21728 whole entry): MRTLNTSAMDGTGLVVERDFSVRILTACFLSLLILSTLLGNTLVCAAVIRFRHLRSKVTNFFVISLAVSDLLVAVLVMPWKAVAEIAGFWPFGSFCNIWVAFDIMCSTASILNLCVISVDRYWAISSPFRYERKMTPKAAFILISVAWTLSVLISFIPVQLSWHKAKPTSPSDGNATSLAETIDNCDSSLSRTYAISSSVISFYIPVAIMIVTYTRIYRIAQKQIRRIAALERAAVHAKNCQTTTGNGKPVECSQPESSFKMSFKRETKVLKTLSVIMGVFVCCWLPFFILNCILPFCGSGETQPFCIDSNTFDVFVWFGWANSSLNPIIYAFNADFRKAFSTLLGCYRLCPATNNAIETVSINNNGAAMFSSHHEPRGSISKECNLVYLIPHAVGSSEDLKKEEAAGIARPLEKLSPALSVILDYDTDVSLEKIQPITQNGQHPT

[17] = target: L-type calcium channel (dihydropyridine site), Cav1.2 alpha-1C (Rattus norvegicus, UniProt P22002); test: Inhibitor of CA+/DHPSI/R in the Eurofins Cerep SafetyScreen44 (BI) by Radioactive Assay (Cerep_161); assay type: protein assay; set-up: scale not given: the % may be the effect or the level left; details: rat brain, probe [3H](+)PN200-110, compound concentration 10 uM, read-out: % Ctrl
[18] = target: Kappa-type opioid receptor (Homo sapiens) (UniProt P41145); test: kappa (KOP) Eurofins-Cerep binding assay; details: Compound concentration 10.0 uM
[19] = target: Histamine H1 receptor (Homo sapiens) (UniProt P35367); test: H1 Eurofins-Cerep binding assay; set-up: ligand concentration 1 nM; details: Compound concentration 10.0 uM
Sequence of Histamine H1 receptor (Homo sapiens) (P35367 whole entry): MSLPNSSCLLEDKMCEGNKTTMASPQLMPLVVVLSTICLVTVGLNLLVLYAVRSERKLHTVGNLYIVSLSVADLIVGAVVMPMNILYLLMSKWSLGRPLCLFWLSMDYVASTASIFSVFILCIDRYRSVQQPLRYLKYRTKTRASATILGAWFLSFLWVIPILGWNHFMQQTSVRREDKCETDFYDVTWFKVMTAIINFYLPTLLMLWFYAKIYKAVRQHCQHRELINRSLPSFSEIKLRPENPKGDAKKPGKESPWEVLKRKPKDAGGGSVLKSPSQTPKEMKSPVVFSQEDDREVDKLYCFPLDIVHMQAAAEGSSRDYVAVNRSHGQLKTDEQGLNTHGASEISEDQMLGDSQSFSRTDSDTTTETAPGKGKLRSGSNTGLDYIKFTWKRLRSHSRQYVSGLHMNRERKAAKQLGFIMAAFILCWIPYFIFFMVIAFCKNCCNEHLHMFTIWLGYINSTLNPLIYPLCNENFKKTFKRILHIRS

[20] = target: Beta-2 adrenergic receptor (Homo sapiens) (UniProt P07550); test: beta 2 Eurofins-Cerep binding assay; details: Compound concentration 10.0 uM
Sequence of Beta-2 adrenergic receptor (Homo sapiens) (P07550 whole entry, looked up): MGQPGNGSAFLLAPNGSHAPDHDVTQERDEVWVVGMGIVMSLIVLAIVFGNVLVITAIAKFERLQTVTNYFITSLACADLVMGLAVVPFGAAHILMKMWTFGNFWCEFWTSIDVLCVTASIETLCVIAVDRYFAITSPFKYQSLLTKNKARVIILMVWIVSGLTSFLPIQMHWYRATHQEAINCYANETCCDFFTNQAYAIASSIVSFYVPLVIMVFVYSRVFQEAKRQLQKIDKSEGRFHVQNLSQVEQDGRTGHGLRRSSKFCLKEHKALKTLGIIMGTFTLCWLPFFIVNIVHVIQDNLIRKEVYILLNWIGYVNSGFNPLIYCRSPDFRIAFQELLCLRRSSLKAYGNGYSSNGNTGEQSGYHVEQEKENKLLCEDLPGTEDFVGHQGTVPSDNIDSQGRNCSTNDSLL

[21] = target: Prostaglandin G/H synthase 1 (Homo sapiens) (UniProt P23219); test: Inhibitor of COX-1 in the Eurofins Cerep SafetyScreen44 (BI) by Fluorimetry (Cerep_4173); details: Compound concentration 10.0 uM
Sequence of Prostaglandin G/H synthase 1 (Homo sapiens) (P23219 whole entry): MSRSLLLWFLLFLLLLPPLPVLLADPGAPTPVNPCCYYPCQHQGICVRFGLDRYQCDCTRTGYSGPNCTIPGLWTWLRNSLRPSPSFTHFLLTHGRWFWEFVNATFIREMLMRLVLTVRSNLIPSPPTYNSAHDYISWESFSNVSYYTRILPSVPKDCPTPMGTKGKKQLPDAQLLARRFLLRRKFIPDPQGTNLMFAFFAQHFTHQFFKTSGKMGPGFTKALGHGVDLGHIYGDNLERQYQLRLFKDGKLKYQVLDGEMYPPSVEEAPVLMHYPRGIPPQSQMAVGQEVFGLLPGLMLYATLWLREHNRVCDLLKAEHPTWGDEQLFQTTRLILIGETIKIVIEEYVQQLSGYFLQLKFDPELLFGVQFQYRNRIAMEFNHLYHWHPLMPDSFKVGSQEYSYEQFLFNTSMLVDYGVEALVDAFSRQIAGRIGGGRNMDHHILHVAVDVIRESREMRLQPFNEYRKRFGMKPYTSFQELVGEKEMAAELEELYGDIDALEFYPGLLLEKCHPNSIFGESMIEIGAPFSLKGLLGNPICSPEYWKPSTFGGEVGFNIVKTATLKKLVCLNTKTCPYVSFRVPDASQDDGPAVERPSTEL

[22] = target: MAO-A (amine oxidase [flavin-containing] A) (Homo sapiens, UniProt P21397); test: Agonist activity in the Eurofins Cerep SafetyScreen44 (BI) against MAO-A_ANTAG by Scintillation counting (Cerep_443); set-up: scale not given: the % may be the effect or the level left; details: rat; compound concentration 10 uM; target entry is the homologue from another species; read-out: % Ctrl
[23] = target: 5-hydroxytryptamine receptor 1A (Homo sapiens) (UniProt P08908); test: 5-HT1A Eurofins-Cerep binding assay; set-up: ligand concentration 0.5 nM; details: Compound concentration 10.0 uM
[24] = target: Cannabinoid receptor 1 (Homo sapiens) (UniProt P21554); test: CB1 Eurofins-Cerep binding assay; details: Compound concentration 10.0 uM
[25] = target: Delta-type opioid receptor (Homo sapiens) (UniProt P41143); test: delta (DOP) Eurofins-Cerep binding assay; set-up: ligand concentration 0.5 nM; details: Compound concentration 10.0 uM
[26] = target: Muscarinic acetylcholine receptor M1 (Homo sapiens) (UniProt P11229); test: M1 Eurofins-Cerep binding assay; set-up: ligand concentration 2 nM; details: Compound concentration 10.0 uM
[27] = target: Sodium-dependent serotonin transporter (Homo sapiens) (UniProt P31645); test: 5-HT transporter Eurofins-Cerep binding assay; set-up: ligand concentration 2 nM; details: Compound concentration 10.0 uM
[28] = target: Histamine H2 receptor (Homo sapiens) (UniProt P25021); test: H2 Eurofins-Cerep binding assay; set-up: ligand concentration 0.075 nM; details: Compound concentration 10.0 uM
[29] = target: Androgen receptor (Homo sapiens) (UniProt P10275); details: Compound concentration 10.0 uM
Description: Activity against ANDROGEN/H in the Eurofins Cerep SafetyScreen44 (BI) by Radioactive Assay (Cerep_933)

[30] = target: 5-hydroxytryptamine receptor 2A (Homo sapiens) (UniProt P28223); test: Agonist activity in the Eurofins Cerep SafetyScreen44 (BI) against 5HT2AH_AGON by Scintillation counting (Cerep_471); details: Compound concentration 10.0 uM
Sequence of 5-hydroxytryptamine receptor 2A (Homo sapiens) (P28223 whole entry): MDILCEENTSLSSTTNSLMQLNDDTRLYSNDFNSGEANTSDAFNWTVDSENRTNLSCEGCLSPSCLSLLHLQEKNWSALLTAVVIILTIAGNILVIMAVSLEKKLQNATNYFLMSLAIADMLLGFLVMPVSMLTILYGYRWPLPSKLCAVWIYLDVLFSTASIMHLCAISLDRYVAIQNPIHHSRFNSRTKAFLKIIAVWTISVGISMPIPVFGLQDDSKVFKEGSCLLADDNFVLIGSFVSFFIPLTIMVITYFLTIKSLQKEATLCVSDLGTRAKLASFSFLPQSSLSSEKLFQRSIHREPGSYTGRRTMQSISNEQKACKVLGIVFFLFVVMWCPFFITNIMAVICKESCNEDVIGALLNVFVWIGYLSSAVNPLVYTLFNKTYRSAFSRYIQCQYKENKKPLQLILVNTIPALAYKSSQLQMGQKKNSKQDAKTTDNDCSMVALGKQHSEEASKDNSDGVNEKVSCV

[31] = target: Beta-1 adrenergic receptor (Homo sapiens) (UniProt P08588); test: beta 1 Eurofins-Cerep binding assay; set-up: ligand concentration 0.3 nM; details: Compound concentration 10.0 uM
Sequence of Beta-1 adrenergic receptor (Homo sapiens) (P08588 whole entry, looked up): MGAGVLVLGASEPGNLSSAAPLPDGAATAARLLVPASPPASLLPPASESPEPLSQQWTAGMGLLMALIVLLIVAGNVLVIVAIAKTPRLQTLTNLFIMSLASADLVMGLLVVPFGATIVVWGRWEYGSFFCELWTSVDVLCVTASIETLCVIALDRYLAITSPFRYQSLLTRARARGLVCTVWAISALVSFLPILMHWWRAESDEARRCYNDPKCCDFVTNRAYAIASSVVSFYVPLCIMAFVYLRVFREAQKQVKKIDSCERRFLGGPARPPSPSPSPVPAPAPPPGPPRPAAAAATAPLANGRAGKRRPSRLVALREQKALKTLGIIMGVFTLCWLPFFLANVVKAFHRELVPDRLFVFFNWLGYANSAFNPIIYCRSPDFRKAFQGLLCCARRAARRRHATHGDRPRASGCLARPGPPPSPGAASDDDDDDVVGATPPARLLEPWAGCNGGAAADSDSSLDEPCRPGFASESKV

[32] = target: Sodium-dependent dopamine transporter (Homo sapiens) (UniProt Q01959); test: dopamine transporter Eurofins-Cerep binding assay; details: Compound concentration 10.0 uM
[33] = target: 5-hydroxytryptamine receptor 3A (Homo sapiens) (UniProt P46098); test: 5-HT3 Eurofins-Cerep binding assay; set-up: ligand concentration 0.5 nM; details: Compound concentration 10.0 uM
hERG (KCNH2) = hERG (KCNH2) (Homo sapiens, UniProt Q12809); test: Inhibitor of HERG_DOFETILIDE in the Eurofins Cerep SafetyScreen44 (BI) by Scintillation counting (Cerep_4094); set-up: scale not given: the % may be the effect or the level left; details: probe [3H] Dofetilide, compound concentration 10 uM, read-out: % Ctrl
[34] = target: 5-hydroxytryptamine receptor 1B (Homo sapiens) (UniProt P28222); test: 5-HT1B Eurofins-Cerep binding assay; set-up: ligand concentration 1 nM; details: Compound concentration 10.0 uM
Rattus norvegicus [35] = species on record: Rattus norvegicus; test: Activity against BZD/CENTR/R in the Eurofins Cerep SafetyScreen44 (BI) by Radioactive Assay (Cerep_28); assay type: protein-complex assay; details: Compound concentration 10.0 uM
[36] = target: Prostaglandin G/H synthase 2 (Homo sapiens) (UniProt P35354); test: Inhibitor of COX-2 in the Eurofins Cerep SafetyScreen44 (BI) by Fluorimetry (Cerep_4186); details: Compound concentration 10.0 uM
Sequence of Prostaglandin G/H synthase 2 (Homo sapiens) (P35354 whole entry): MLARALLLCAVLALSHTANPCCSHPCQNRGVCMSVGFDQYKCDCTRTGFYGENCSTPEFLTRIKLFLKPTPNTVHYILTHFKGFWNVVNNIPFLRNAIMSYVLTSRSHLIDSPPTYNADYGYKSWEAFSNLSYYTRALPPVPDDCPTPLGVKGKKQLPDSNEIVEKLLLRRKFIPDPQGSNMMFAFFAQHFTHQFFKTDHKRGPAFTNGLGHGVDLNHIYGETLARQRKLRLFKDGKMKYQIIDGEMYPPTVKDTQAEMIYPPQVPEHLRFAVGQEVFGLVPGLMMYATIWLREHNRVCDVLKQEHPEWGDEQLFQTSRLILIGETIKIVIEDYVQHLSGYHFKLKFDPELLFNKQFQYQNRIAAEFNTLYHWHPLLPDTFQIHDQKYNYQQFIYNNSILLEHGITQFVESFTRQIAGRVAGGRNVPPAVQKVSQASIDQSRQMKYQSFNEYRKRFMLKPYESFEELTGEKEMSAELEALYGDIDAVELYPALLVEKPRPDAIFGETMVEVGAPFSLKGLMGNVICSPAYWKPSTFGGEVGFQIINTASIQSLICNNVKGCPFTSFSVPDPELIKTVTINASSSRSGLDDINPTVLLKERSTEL

Rattus norvegicus [37] = species on record: Rattus norvegicus; test: KV channel Eurofins-Cerep binding assay; set-up: ligand concentration 0.01 nM; details: Compound concentration 10.0 uM
[38] = target: Glutamate NMDA receptor (Rattus norvegicus) (UniProt P35439+Q00959+Q00960+Q00961+Q62645+Q8VHN2+Q9R1M7); test: Inhibitor of NMDA/R in the Eurofins Cerep SafetyScreen44 (BI) by Radioactive Assay (Cerep_66); assay type: protein-complex assay; details: Compound concentration 10.0 uM
[39] = target: Angiotensin-converting enzyme (Homo sapiens) (UniProt P12821); test: Activity against ACE(HU_AMTCH400) in the Eurofins Cerep SafetyScreen44 (BI) by Photometry (Cerep_3441); details: Compound concentration 10.0 uM
[40] = target: cGMP-inhibited 3',5'-cyclic phosphodiesterase 3A (Homo sapiens) (UniProt Q14432); test: Inhibitor of PDE3A in the Eurofins Cerep SafetyScreen44 (BI) by HTRF-homogeneous time resolved fluoresce (Cerep_4072); details: Compound concentration 10.0 uM
[41] = target: Alpha-1A adrenergic receptor (Homo sapiens) (UniProt P35348); test: Agonist activity in the Eurofins Cerep SafetyScreen44 (BI) against ALPHA1AH_ANTAG by Scintillation counting (Cerep_2338); details: Compound concentration 10.0 uM
Cathepsin K = Cathepsin K (Homo sapiens, UniProt P43235); test: Luminescent based enzymatic assay (CTSK)
Cathepsin B = Cathepsin B (Homo sapiens, UniProt P07858); test: Luminescent based enzymatic assay (CTSB)
Cathepsin S = Cathepsin S (Homo sapiens, UniProt P25774); test: Scintillation proximity assay (CTSS)
Procathepsin L = Procathepsin L (Homo sapiens, UniProt P07711); test: Luminescent based enzymatic assay (CTSL)

`CN1CCC(C#N)(NC(=O)[C@@H](NC(=O)N2CCOCC2)C(C)(C)C)CC1` was tested, and the residual activity [1] was 99%, the residual activity (Homo sapiens) was 98% and the residual activity [2] was 87%. The residual activity [3] was 94%, the residual activity [4] was 80% and the residual activity [5] was 107%. For the same compound, the residual activity [6] was 105%, the residual activity [7] was 125% and the residual activity [8] was 117%. For the same compound, the residual activity [9] was 120%, the residual activity [10] was 105% and the residual activity [11] was 109%. It also gave a residual activity [12] of 112%, a residual activity [13] of 96% and a residual activity [14] of 96%. The residual activity [15] was 112%, the residual activity [16] was 105% and the activity at 10 µM [17] was 115% (not active). The residual activity [18] was 96%, the residual activity [19] was 106% and the residual activity [20] was 92%. For the same compound, the residual activity [21] was 108%, the activity at 10 µM [22] was 105% (not active) and the residual activity [23] was 97%. For the same compound, the residual activity [24] was 112%, the residual activity [25] was 106% and the residual activity [26] was 108%. It also gave a residual activity [27] of 106%, a residual activity [28] of 92% and a residual activity [29] of 110%. For the same compound, the residual activity [30] was 123%, the residual activity [31] was 97% and the residual activity [32] was 105%. The residual activity [33] was 97%, the activity at 10 µM (hERG (KCNH2)) was 98% (not active) and the residual activity [34] was 61%. It also gave a residual activity (Rattus norvegicus [35]) of 111%, a residual activity [36] of 90% and a residual activity (Rattus norvegicus [37]) of 110%. It also gave a residual activity [38] of 92%, a residual activity [39] of 105% and a residual activity [40] of 88%. The residual activity [41] was 104%.

`CCC(C)(C)CC[C@H](NC(=O)N1CCOCC1)C(=O)NC1(C#N)CCN(C)CC1` was tested, and the residual activity [1] was 96.5%, the residual activity (Homo sapiens) was 114% and the residual activity [2] was 102%. The residual activity [3] was 92.5%, the residual activity [4] was 97% and the residual activity [5] was 106%. It also gave a residual activity [6] of 102%, a residual activity [7] of 106% and a residual activity [8] of 118%. The residual activity [9] was 103%, the residual activity [10] was 100% and the residual activity [11] was 106%. For the same compound, the residual activity [12] was 106%, the residual activity [13] was 88% and the IC50 (Cathepsin K) was > 10 µM (not active). For the same compound, the residual activity [14] was 81%, the residual activity [15] was 106% and the residual activity [16] was 94%. The activity at 10 µM [17] was 106% (not active), the residual activity [18] was 84.5% and the residual activity [19] was 101%. For the same compound, the residual activity [20] was 103%, the residual activity [21] was 112% and the activity at 10 µM [22] was 108% (not active). For the same compound, the residual activity [23] was 104%, the residual activity [24] was 116% and the residual activity [25] was 92.5%. For the same compound, the residual activity [26] was 105%, the IC50 (Cathepsin B) was > 10 µM (not active) and the residual activity [27] was 106%. The residual activity [28] was 106%, the residual activity [29] was 107% and the Kd (Cathepsin S) was 0.031 µM (active). It also gave a residual activity [30] of 104%, a residual activity [31] of 101% and a residual activity [32] of 98.5%. The residual activity [33] was 100%, the activity at 10 µM (hERG (KCNH2)) was 100% (not active) and the residual activity [34] was 92.5%. For the same compound, the IC50 (Procathepsin L) was > 30 µM (not active), the residual activity (Rattus norvegicus [35]) was 114% and the residual activity [36] was 104%. The residual activity (Rattus norvegicus [37]) was 109%, the residual activity [38] was 106% and the residual activity [39] was 98.5%. The residual activity [40] was 103% and the residual activity [41] was 110%.

— ChEMBL document CHEMBL5723586, “Data for DCP probe BI-1915” (2024)
